Measurements published in patent US20080194552A1, “Aminopyrimidine Derivatives With Tie2 Inhibiting Activity” (ASTRAZENECA AB, priority 2005, published 2008).

Biological target: T1, Tie2 receptor tyrosine kinase (Homo sapiens, UniProt Q02763)
T1 construct: one can use natural cell lines or primary cells which are known to express the receptor of choice; endogenous in cells; host or cells: EA.hy926/B3 cells (HUVEC named as an alternative)
Assay: Cellular Tie2 autophosphorylation assay
Type: cell-based
Details: whole cells, e.g. Ang1 ligand stimulated EA.hy926/B3 cells; read-out: IC50 Inhibition of autophosphorylation of Tie2 receptor tyrosine kinase
Description: The following assay can be used to measure the effects of the compounds of the present invention as inhibitors of Tie2 autophosphorylation in whole cells.
Cellular Tie2 Autophosphorylation Assay
This assay is based on measuring the ability of compounds to inhibit autophosphorylation of the Tie2 receptor which normally leads to the production of “activated” receptor that in turn initiates the particular signal transduction pathways associated with the receptor function.
Autophosphorylation can be achieved by a number of means. It is known that expression of recombinant kinase domains in baculoviral systems can lead to the production of phosphorylated and activated receptor. […]
Naturally if the ligand is available one can use natural cell lines or primary cells which are known to express the receptor of choice and simply stimulate with ligand to achieve ligand induced phosphorylation. The ability of compounds to inhibit autophosphorylation of the Tie2 receptor, which is expressed for example in EA.hy926/B3 cells (supplied by J. McLean/B. Tuchi, Univ. of N. Carolina at Chapel Hill, CB-4100, 300 Bynum Hall, Chapel Hill, N.C. 27599-41000, USA) or primary HUVEC (human umbilical vein endothelial cells—available from various commercial sources), can measured by this assay. […]

T1 sequence (Q02763 23-1124): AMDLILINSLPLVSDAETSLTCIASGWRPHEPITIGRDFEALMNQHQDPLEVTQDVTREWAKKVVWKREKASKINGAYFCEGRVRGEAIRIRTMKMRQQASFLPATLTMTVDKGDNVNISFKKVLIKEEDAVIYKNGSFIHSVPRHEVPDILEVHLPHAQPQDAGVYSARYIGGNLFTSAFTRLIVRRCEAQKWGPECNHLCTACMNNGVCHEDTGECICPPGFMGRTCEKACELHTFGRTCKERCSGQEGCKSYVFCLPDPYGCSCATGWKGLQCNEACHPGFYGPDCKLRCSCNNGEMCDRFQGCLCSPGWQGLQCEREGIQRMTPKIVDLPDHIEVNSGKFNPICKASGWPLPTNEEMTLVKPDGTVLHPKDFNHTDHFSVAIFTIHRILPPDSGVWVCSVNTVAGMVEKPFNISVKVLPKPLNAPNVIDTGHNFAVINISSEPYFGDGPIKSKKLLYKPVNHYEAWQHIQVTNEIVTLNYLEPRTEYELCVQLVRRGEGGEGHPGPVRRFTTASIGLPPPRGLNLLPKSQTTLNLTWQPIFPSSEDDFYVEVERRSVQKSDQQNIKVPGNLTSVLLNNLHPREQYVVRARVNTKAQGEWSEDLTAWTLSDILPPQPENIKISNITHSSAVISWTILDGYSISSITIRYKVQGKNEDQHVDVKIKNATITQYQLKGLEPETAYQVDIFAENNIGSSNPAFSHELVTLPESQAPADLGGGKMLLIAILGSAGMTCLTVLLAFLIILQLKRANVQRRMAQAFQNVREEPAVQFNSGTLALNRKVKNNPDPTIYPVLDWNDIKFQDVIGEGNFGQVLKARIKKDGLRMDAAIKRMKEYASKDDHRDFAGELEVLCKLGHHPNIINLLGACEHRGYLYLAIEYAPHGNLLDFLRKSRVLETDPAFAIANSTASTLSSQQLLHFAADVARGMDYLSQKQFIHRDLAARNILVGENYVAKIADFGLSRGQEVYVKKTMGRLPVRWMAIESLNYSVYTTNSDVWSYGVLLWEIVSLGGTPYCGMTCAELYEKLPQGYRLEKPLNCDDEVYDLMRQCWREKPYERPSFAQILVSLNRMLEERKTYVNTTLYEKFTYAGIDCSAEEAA

IC50 [nM] | Structure (SMILES)
16 | Nc1ncc(C#Cc2ccc(C(=O)Nc3cc(C(F)(F)F)ccc3F)s2)cn1 [Example 1, 5-[(2-Aminopyrimidin-5-yl)ethynyl]-N-[2-fluoro-5-(trifluoromethyl)phenyl]thiophene-2-carboxamide]
26 | Nc1ncc(C#Cc2csc(C(=O)Nc3cc(C(F)(F)F)ccc3F)c2)cn1 [Example 2, 4-[(2-Aminopyrimidin-5-yl)ethynyl]-N-[2-fluoro-5-(trifluoromethyl)phenyl]thiophene-2-carboxamide]
